# Test results from US6706663B2, “Herbicidal 3-heterocyclic substituted benzisothiazole and benzisoxazole compounds” (Wyeth, priority 2000, dated 2004).
# How the values were obtained:
# [1] = system: GLXMAW (Soybean, Williams); test: Preemergence herbicidal evaluation; type: in vivo, Glycine max, (L.) Merr. cv Williams; conditions: preemergence, rated 4-5 weeks after treatment
# GALAP (Galium aparine) [2] = test: Postemergence herbicidal evaluation; type: in vivo
# Procedure, shortened: (§1)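 Visual 0–9 injury scores versus control plants, covering stand, vigour, malformation, size, chlorosis and general appearance, taken four to five weeks post-spray and averaged over replicate tests. Plants were sprayed at roughly two weeks old and held on greenhouse benches.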
# GALAP (Galium aparine) [3] = test: Preemergence herbicidal evaluation; type: in vivo; conditions: preemergence, rated 4-5 weeks after treatment
# Procedure, shortened: (§2)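 Steps: mix seeds with potting soil; plant on ~1 inch soil per cup; spray compound in aqueous acetone; hold on greenhouse benches with routine watering; rate 0–9 visually against control at 4–5 weeks.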
# CYPIR (Cyperus iria) [4] = test: Flooded paddy, postemergence weed control; type: in vivo; conditions: postemergence weeds, rated 3-4 weeks after treatment
# Text: (§3) Results of herbicide evaluation are expressed on a rating scale (0-9). The scale is based upon a visual observation of plant stand, vigor, malformation, size, chlorosis and overall plant appearance as compared with a control.
# (§4) Plastic containers containing weeds which are 3 to 5 cm tall and rice seedlings at the 1.5 to 2.5 leaf stage are flooded with water. The water is maintained at 1.5 to 3 cm above the soil surface for the duration of the experiment. Test compounds are applied as aqueous/acetone mixtures 50/50 v/v directly into the flood water to provide the equivalent of about 0.0320 to 0.2500 kg/ha of active ingredient. The treated containers are placed on greenhouse benches and cared for in accordance with conventional greenhouse procedures. Three to four weeks after treatment, the test is terminated and each container is examined and herbicidal effect rated according to the rating system provided in Example 87. The compounds evaluated are identified in Example 87 and plant species used are identified in Example 89.
# ORYSAT (Rice, Tebonnet) = test: Flooded paddy, post-transplant and postemergence rice tolerance; type: in vivo, Oryza sativa, (L.) Tebonnet; conditions: post-transplant rice, rated 3-4 weeks after treatment
# Text: as §3, §4
# ZEAMX (Corn, Field) = test: Preemergence herbicidal evaluation; type: in vivo, Zea mays, L.; conditions: preemergence, rated 4-5 weeks after treatment
# SETVI (Setaria viridis) [5] = test: Preemergence herbicidal evaluation; type: in vivo, (L.) Beau; conditions: preemergence, rated 4-5 weeks after treatment
# Procedure, shortened: as §2
# [6] = system: ECHCG (Echinochloa crus-galli); test: Preemergence herbicidal evaluation; type: in vivo, (L.) Beau; conditions: preemergence, rated 4-5 weeks after treatment
# Procedure, shortened: as §2
# [7] = system: SAGPY (Sagittaria pygmaea); test: Flooded paddy, postemergence weed control; type: in vivo, L.; conditions: postemergence weeds, rated 3-4 weeks after treatment
# Text: as §3, §4
# [8] = system: GLXMAW (Soybean, Williams); test: Postemergence herbicidal evaluation; type: in vivo, Glycine max, (L.) Merr. cv Williams
# Procedure, shortened: as §1
# [9] = system: MOOVA (Monochoria vaginalis); test: Flooded paddy, postemergence weed control; type: in vivo, Presl.; conditions: postemergence weeds, rated 3-4 weeks after treatment
# Text: as §3, §4
# [10] = system: MOOVA (Monochoria vaginalis); test: Flooded paddy, preemergence weed control; type: in vivo, Presl.; conditions: rated 3-4 weeks after treatment, 0-9 rating scale
# Procedure, shortened: (§5)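 Seeds or propagating organs were sown in the top 0.5 cm of silt loam soil, flooded, and the water kept 1.5 to 3 cm above the soil surface throughout. Plants were grown in the greenhouse and rated visually on a 0-9 scale against a control.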
# SETVI (Setaria viridis) [11] = test: Postemergence herbicidal evaluation; type: in vivo, (L.) Beau
# Procedure, shortened: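 Seedlings about two weeks old were sprayed with compound in 50/50 acetone/water plus 0.5% TWEEN 20, at the equivalent of about 0.0040 to 1.000 kg/ha. Plants were kept in a greenhouse and visually rated 0-9 against a control four to five weeks after treatment. Repeat tests were averaged.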
# [12] = system: IPOHE (Ipomoea hederacea); test: Preemergence herbicidal evaluation; type: in vivo, (L.) Jacq.; conditions: preemergence, rated 4-5 weeks after treatment
# CYPIR (Cyperus iria) [13] = test: Flooded paddy, preemergence weed control; type: in vivo; conditions: rated 3-4 weeks after treatment, 0-9 rating scale
# Procedure, shortened: as §5
# [14] = system: CYPSE (Cyperus serotinus); test: Flooded paddy, postemergence weed control; type: in vivo, Rottb.; conditions: postemergence weeds, rated 3-4 weeks after treatment
# Text: as §3, §4
# [15] = system: ECHORC (Echinochloa oryzoides); test: Flooded paddy, postemergence weed control; type: in vivo, Echinochloa oryzoides (Ard.) Fritsch.; conditions: postemergence weeds, rated 3-4 weeks after treatment
# Text: as §3, §4
smiles,measurement,setting,value
"Cn1c(C(F)(F)F)cc(=O)n(-c2ccc3snc(-c4ncccn4)c3c2)c1=O [Compound 12, 1-methyl-3-[3-(2-pyrimidinyl)-1,2-benzisothiazol-5-yl]-6-(trifluoromethyl)uracil]",GLXMAW preemergence herbicidal rating,[1]; Rate 0.2500 kg/ha,9.0
same,"Postemergence herbicidal rating, GALAP",GALAP (Galium aparine) [2]; rate 0.0620 kg/ha,9.0
same,GALAP preemergence herbicidal rating,GALAP (Galium aparine) [3]; Rate 0.2500 kg/ha,9.0
same,herbicide rating (0-9) CYPIR,CYPIR (Cyperus iria) [4]; 0.1250 kg/ha into flood water,9.0
same,herbicide rating (0-9) ORYSAT (rice tolerance),"ORYSAT (Rice, Tebonnet); 0.1250 kg/ha into flood water",2.0
same,ZEAMX preemergence herbicidal rating,"ZEAMX (Corn, Field); Rate 0.2500 kg/ha",8.5
same,SETVI preemergence herbicidal rating,SETVI (Setaria viridis) [5]; Rate 0.2500 kg/ha,9.0
same,ECHCG preemergence herbicidal rating,[6]; Rate 0.2500 kg/ha,9.0
same,herbicide rating (0-9) SAGPY,[7]; 0.1250 kg/ha into flood water,0.0
same,"Postemergence herbicidal rating, GLXMAW",[8]; rate 0.0620 kg/ha,8.5
same,herbicide rating (0-9) MOOVA,[9]; 0.1250 kg/ha into flood water,2.0
same,"herbicidal rating, MOOVA",[10]; rate 0.1250 kg/ha,9.0
same,"Postemergence herbicidal rating, SETVI",SETVI (Setaria viridis) [11]; rate 0.0620 kg/ha,9.0
same,IPOHE preemergence herbicidal rating,[12]; Rate 0.2500 kg/ha,9.0
same,"herbicidal rating, CYPIR",CYPIR (Cyperus iria) [13]; rate 0.1250 kg/ha,9.0
same,herbicide rating (0-9) CYPSE,[14]; 0.1250 kg/ha into flood water,0.0
same,herbicide rating (0-9) ECHORC,[15]; 0.1250 kg/ha into flood water,1.0
"Cc1ccc(-c2nsc3ccc(-n4c(=O)cc(C(F)(F)F)n(C)c4=O)cc23)s1 [Compound 21, 1-methyl-3-[3-(5-methyl-2-thienyl)-1,2-benzisothiazol-5-yl]-6-(trifluoromethyl)uracil]",GLXMAW preemergence herbicidal rating,[1]; Rate 0.0620 kg/ha,0.0
same,GLXMAW preemergence herbicidal rating,[1]; Rate 0.1250 kg/ha,0.0
same,GLXMAW preemergence herbicidal rating,[1]; Rate 0.2500 kg/ha,2.0
same,"Postemergence herbicidal rating, GALAP",GALAP (Galium aparine) [2]; rate 0.0320 kg/ha,1.0
same,"Postemergence herbicidal rating, GALAP",GALAP (Galium aparine) [2]; rate 0.0620 kg/ha,4.0
same,"Postemergence herbicidal rating, GALAP",GALAP (Galium aparine) [2]; rate 0.1250 kg/ha,9.0
same,GALAP preemergence herbicidal rating,GALAP (Galium aparine) [3]; Rate 0.0620 kg/ha,3.0
same,GALAP preemergence herbicidal rating,GALAP (Galium aparine) [3]; Rate 0.1250 kg/ha,2.0
same,GALAP preemergence herbicidal rating,GALAP (Galium aparine) [3]; Rate 0.2500 kg/ha,9.0
same,herbicide rating (0-9) CYPIR,CYPIR (Cyperus iria) [4]; 0.0320 kg/ha into flood water,9.0
same,herbicide rating (0-9) CYPIR,CYPIR (Cyperus iria) [4]; 0.0620 kg/ha into flood water,9.0
same,herbicide rating (0-9) CYPIR,CYPIR (Cyperus iria) [4]; 0.1250 kg/ha into flood water,9.0
same,herbicide rating (0-9) ORYSAT (rice tolerance),"ORYSAT (Rice, Tebonnet); 0.0320 kg/ha into flood water",4.0
same,herbicide rating (0-9) ORYSAT (rice tolerance),"ORYSAT (Rice, Tebonnet); 0.0620 kg/ha into flood water",7.0
same,herbicide rating (0-9) ORYSAT (rice tolerance),"ORYSAT (Rice, Tebonnet); 0.1250 kg/ha into flood water",7.0
same,ZEAMX preemergence herbicidal rating,"ZEAMX (Corn, Field); Rate 0.0620 kg/ha",1.0
same,ZEAMX preemergence herbicidal rating,"ZEAMX (Corn, Field); Rate 0.1250 kg/ha",3.5
same,ZEAMX preemergence herbicidal rating,"ZEAMX (Corn, Field); Rate 0.2500 kg/ha",4.5
same,SETVI preemergence herbicidal rating,SETVI (Setaria viridis) [5]; Rate 0.0620 kg/ha,6.5
same,SETVI preemergence herbicidal rating,SETVI (Setaria viridis) [5]; Rate 0.1250 kg/ha,9.0
same,SETVI preemergence herbicidal rating,SETVI (Setaria viridis) [5]; Rate 0.2500 kg/ha,9.0
same,ECHCG preemergence herbicidal rating,[6]; Rate 0.0620 kg/ha,0.0
same,ECHCG preemergence herbicidal rating,[6]; Rate 0.1250 kg/ha,5.0
same,ECHCG preemergence herbicidal rating,[6]; Rate 0.2500 kg/ha,6.5
same,herbicide rating (0-9) SAGPY,[7]; 0.0320 kg/ha into flood water,0.0
same,herbicide rating (0-9) SAGPY,[7]; 0.0620 kg/ha into flood water,0.0
same,herbicide rating (0-9) SAGPY,[7]; 0.1250 kg/ha into flood water,0.0
same,"Postemergence herbicidal rating, GLXMAW",[8]; rate 0.0320 kg/ha,5.5
same,"Postemergence herbicidal rating, GLXMAW",[8]; rate 0.0620 kg/ha,6.0
same,"Postemergence herbicidal rating, GLXMAW",[8]; rate 0.1250 kg/ha,6.0
same,herbicide rating (0-9) MOOVA,[9]; 0.0320 kg/ha into flood water,9.0
same,herbicide rating (0-9) MOOVA,[9]; 0.0620 kg/ha into flood water,9.0
same,herbicide rating (0-9) MOOVA,[9]; 0.1250 kg/ha into flood water,9.0
same,"herbicidal rating, MOOVA",[10]; rate 0.0080 kg/ha,7.0
same,"herbicidal rating, MOOVA",[10]; rate 0.0320 kg/ha,9.0
same,"herbicidal rating, MOOVA",[10]; rate 0.1250 kg/ha,9.0
same,"Postemergence herbicidal rating, SETVI",SETVI (Setaria viridis) [11]; rate 0.0320 kg/ha,2.0
same,"Postemergence herbicidal rating, SETVI",SETVI (Setaria viridis) [11]; rate 0.0620 kg/ha,7.0
same,"Postemergence herbicidal rating, SETVI",SETVI (Setaria viridis) [11]; rate 0.1250 kg/ha,9.0
same,IPOHE preemergence herbicidal rating,[12]; Rate 0.0620 kg/ha,0.0
same,IPOHE preemergence herbicidal rating,[12]; Rate 0.1250 kg/ha,2.0
same,IPOHE preemergence herbicidal rating,[12]; Rate 0.2500 kg/ha,5.0
same,"herbicidal rating, CYPIR",CYPIR (Cyperus iria) [13]; rate 0.0080 kg/ha,4.0
same,"herbicidal rating, CYPIR",CYPIR (Cyperus iria) [13]; rate 0.0320 kg/ha,9.0
same,"herbicidal rating, CYPIR",CYPIR (Cyperus iria) [13]; rate 0.1250 kg/ha,9.0
same,herbicide rating (0-9) CYPSE,[14]; 0.0320 kg/ha into flood water,0.0
same,herbicide rating (0-9) CYPSE,[14]; 0.0620 kg/ha into flood water,0.0
same,herbicide rating (0-9) CYPSE,[14]; 0.1250 kg/ha into flood water,0.0
same,herbicide rating (0-9) ECHORC,[15]; 0.0320 kg/ha into flood water,6.0
same,herbicide rating (0-9) ECHORC,[15]; 0.0620 kg/ha into flood water,9.0
same,herbicide rating (0-9) ECHORC,[15]; 0.1250 kg/ha into flood water,9.0
